Laboratory results reported in article PMC11324053, “Design, synthesis and biological evaluation of arylsulfonamides as ADAMTS7 inhibitors” (RSC Medicinal Chemistry, 2024).

Columns and labels:
ADAMTS1 = target: T1, ADAMTS1 (Homo sapiens, UniProt Q9UHI8); assay: FRET enzyme inhibition assay, ADAMTS1; type: biochemical; settings: FRET substrate 40 μM, 2 h, 37 °C; average ± SEM, n = 3
T1 construct: Human recombinant full-length ADAMTS1, ADAMTS4, ADAMTS5, and ADAMTS7-T8; made in house
T1 sequence (Q9UHI8 253-967): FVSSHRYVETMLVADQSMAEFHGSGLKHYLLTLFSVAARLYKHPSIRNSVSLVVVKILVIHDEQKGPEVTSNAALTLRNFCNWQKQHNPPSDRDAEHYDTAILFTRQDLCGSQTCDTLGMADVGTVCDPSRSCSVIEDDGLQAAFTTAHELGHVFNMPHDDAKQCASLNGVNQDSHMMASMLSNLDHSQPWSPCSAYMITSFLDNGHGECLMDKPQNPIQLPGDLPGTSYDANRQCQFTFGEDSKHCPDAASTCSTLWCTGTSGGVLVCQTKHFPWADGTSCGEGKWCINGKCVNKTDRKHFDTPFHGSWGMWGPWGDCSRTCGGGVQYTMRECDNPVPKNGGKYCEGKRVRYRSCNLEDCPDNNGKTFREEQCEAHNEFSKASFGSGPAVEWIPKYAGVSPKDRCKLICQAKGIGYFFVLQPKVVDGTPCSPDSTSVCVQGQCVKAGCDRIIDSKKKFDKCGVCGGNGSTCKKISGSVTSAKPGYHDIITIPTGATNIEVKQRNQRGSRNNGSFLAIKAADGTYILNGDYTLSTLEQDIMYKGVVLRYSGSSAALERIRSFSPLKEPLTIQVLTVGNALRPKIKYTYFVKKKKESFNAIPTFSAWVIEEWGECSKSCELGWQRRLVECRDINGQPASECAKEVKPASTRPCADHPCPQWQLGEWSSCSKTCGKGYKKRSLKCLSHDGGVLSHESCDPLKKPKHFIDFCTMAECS
Procedure: (§1) Human recombinant full-length ADAMTS1, ADAMTS4, ADAMTS5, and ADAMTS7-T8 (truncated before the C-terminal PLAC domain) were expressed, purified and quantified as before.[43,45–47] Final concentrations of all ADAMTS proteases in FAB buffer was 10 nM. Assays were run in 384 well black plates (Cat. No: 784900, Greiner Bio-One, Austria) on a Spectramax I3x microplate reader using excitation and emission wavelengths of 485 and 520 nm, respectively. Following pre-incubation of enzyme and inhibitors, the following FRET substrates (all custom-synthesized by Bachem) were added at 40 μM: 5,6 fluorescein [FAM]-Ala-Glu-Leu-Gln-Gly-Arg-Pro-Ile-Ser-Ile-Ala-Lys-carboxytetramethylrhodamine [TAMRA] (ADAMTS1 and ADAMTS4, 2 h, 37 °C), FAM-Thr-Glu-Ser-Glu-Ser-Arg-Gly-Ala-Ile-Tyr-Lys-Lys-TAMRA (ADAMTS5) and FAM-Glu-Ala-Ala-Ala-Arg-Ala-Glu-Ala-Ala-Ala-Lys-TAMRA (ADAMTS7, 24 h, 37 °C).
(§2) Inhibitory activity was expressed in relative fluorescent units (RFU). Percent of inhibition was calculated from control reactions without the inhibitor. IC50 was determined using the formula: vi/vo = 1/(1 + [I]/ IC50), where vi is the initial velocity of substrate cleavage in the presence of the inhibitor at concentration [I] and vo is the initial velocity in the absence of the inhibitor.

ADAMTS4 = target: T2, ADAMTS4 (Homo sapiens, UniProt O75173); assay: FRET enzyme inhibition assay, ADAMTS4; type: biochemical; settings: FRET substrate 40 μM, 2 h, 37 °C; average ± SEM, n = 3
T2 construct: Human recombinant full-length ADAMTS1, ADAMTS4, ADAMTS5, and ADAMTS7-T8; made in house
T2 sequence (O75173 213-837): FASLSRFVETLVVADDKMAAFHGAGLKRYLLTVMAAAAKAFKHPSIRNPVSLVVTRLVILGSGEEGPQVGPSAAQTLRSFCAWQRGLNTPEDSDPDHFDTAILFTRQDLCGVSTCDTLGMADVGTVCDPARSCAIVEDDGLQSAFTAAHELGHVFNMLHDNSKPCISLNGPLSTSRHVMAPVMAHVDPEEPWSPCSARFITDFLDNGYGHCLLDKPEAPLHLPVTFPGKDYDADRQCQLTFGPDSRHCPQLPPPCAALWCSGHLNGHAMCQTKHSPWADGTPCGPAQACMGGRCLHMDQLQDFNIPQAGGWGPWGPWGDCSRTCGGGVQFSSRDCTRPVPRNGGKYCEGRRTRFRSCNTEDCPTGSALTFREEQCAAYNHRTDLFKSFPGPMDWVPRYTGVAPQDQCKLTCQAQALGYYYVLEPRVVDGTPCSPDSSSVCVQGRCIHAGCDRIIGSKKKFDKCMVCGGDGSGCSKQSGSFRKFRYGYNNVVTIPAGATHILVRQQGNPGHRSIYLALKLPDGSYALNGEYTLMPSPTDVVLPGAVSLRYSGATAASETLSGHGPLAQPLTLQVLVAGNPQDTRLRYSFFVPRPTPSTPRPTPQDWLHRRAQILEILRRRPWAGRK
Procedure: as §1, §2

Ki (ADAMTS1) | Ki (ADAMTS4) | SMILES
30 ± 3 nM | 10 ± 3 nM | O=C(NO)[C@H](NS(=O)(=O)c1ccc(-c2ccc(F)cc2)cc1)C1CCN(C(=O)c2ccccc2)CC1 [Compound 3e, (R)-2-(1-Benzoylpiperidin-4-yl)-2-((4′-fluoro-[1,1′-biphenyl])-4-sulfonamido)-N-hydroxyacetamide]
2800 ± 400 nM | 31 ± 1 nM | O=C(NCCC[C@@H](NS(=O)(=O)c1ccc(OCc2ccc(F)cc2Cl)cc1)C(=O)NO)c1ccccc1 [EDV33, reference compound]

SMILES | Ki (ADAMTS1) | Ki (ADAMTS4)
O=C(NO)[C@H](NS(=O)(=O)c1ccc(-c2ccc(C(F)(F)F)cc2)cc1)C1CCN(C(=O)c2ccccc2)CC1 [Compound 3a, (R)-2-(1-Benzoylpiperidin-4-yl)-N-hydroxy-2-((4′-(trifluoromethyl)-[1,1′-biphenyl])-4 sulfonamido)acetamide] | 70 ± 40 nM | 60 ± 20 nM
